For one data set, the system named is A498. Briefly: MTT cell viability, A498. Particulars: Homo sapiens, A498, 48 h. Format: cell-based. As for the experimental part: (§1) Cells (10^4) were seeded into 96-well plates and then treated with NUC-7738 (lot 5132/E00393/119) or 3′-dA (cordycepin, catalog no. C3394, lot 067M4182, Sigma) for 48 hours. One and a half milligrams per milliliter MTT (catalog no. M6494, Invitrogen) in a 1:1 ratio was added to cell culture media. After a 2-hour incubation at 37°C, media was removed and 70 μl of isopropanol was added. Optical densities at 570 nm were measured using POLARstar Omega plate reader. Readouts were normalized and IC50 values were calculated using a nonlinear regression model in Graphpad prism (v8.3.0). Each biological replicate (at least 3) was performed in 4 technical replicates to calculate the average IC50 value. To measure apoptosis, the Guava NexinReagent (Luminex Corp.) was used following manufacturer's instructions. Fluorescence staining was measured with an automated 96-well Guava easyCyte Flow Cytometer (Luminex Corp.).

Another data set has as its system SK-OV3. Briefly: MTT cell viability, SK-OV3. Format: cell-based. Particulars: Homo sapiens, SK-OV-3, 48 h. As for the experimental part:
as §1

Another data set deals with 501MEL. Briefly: MTT cell viability, 501MEL. The class given is cell-based. The conditions noted are these: 48 h. As for the experimental part: as §1
The nature of data set [1]: Beagle dog 4-week toxicology and toxicokinetics.

`C[C@H](NP(=O)(OC[C@@H]1C[C@@H](O)[C@H](n2cnc3c(N)ncnc32)O1)Oc1ccccc1)C(=O)OCc1ccccc1` (stereo partly drawn) [NUC-7738, 3′-deoxyadenosine-5′-O-phenyl-(benzyloxy-L-alaninyl)-phosphate] yielded an IC50 with A498 of 48.5 µM. Moreover, half-maximal inhibition in the data set on SK-OV3 (IC50) required 16.6 µM. The same molecule showed an IC50 in the data set with 501MEL of 10.9 µM. Moreover, in data set [1] (10 mg/kg/day, sex mean at day 26), the “mean AUC(0-t)” value turned out to be 638 ng/h/mL. Further, the toxicology findings entry in data set [1] (20 mg/kg/day, iv slow injection, 4 cycles) is “induced changes in the liver and bone marrow”. Further, the “systemic exposure (mean Cmax and AUC 0-t), single vs repeated administrations” value in data set [1] (all doses, significance >2-fold change) was “No significant differences”. In addition, in data set [1] (both, beagle, plasma, iv), the Tmax came out at 15 min, the clearance lay within 245 to 533 mL/min/kg and the half-life was 13.2 to 27.6 min. The same molecule had a Cmax in data set [1] (both, beagle, plasma, iv, 10 mg/kg/day) of 1560 ng/mL. For the same molecule, in data set [1] (iv, 4 cycles (4 weeks)), the “highest nonseverely toxic dose (HNSTD)” value is on record as 10 mg/kg/day.

By IC50 is commonly meant the concentration that inhibits the measured activity by half. Broadly, the Tmax is the time from dosing to the highest level. One may read the clearance as the volume of plasma or blood freed of the substance per unit of time. High values mean efficient removal, low ones inefficient removal. What is called half-life is the time in which the quantity being followed falls by half. Lower therefore signals rapid decline. The term Cmax denotes the peak of the concentration-time curve.

Source of the values: paper PMC9401491, “The Novel Nucleoside Analogue ProTide NUC-7738 Overcomes Cancer Resistance Mechanisms In Vitro and in a First-In-Human Phase I Clinical Trial” (Clinical Cancer Research, 2021).
